Experiments:
Bile salt export pump = Bile salt export pump (Homo sapiens, UniProt O95342); assay: Inhibition of human BSEP overexpressed in Sf9 cell membrane vesicles assessed as uptake of [3H]-taurocholate in presence of ATP measured after 15 to 20 mins by membrane vesicle transport assay; assay type: ADME, cell-based
[1] = target: ATP-binding cassette sub-family C member 2 (Homo sapiens, UniProt Q92887); assay: Inhibition of human MRP2 overexpressed in Sf9 cell membrane vesicles assessed as uptake of [3H]-estradiol-17beta-D-glucuronide in presence of ATP and GSH measured after 20 mins by membrane vesicle transport assay
ATP-binding cassette sub-family C member 2, sequence (Q92887 whole entry): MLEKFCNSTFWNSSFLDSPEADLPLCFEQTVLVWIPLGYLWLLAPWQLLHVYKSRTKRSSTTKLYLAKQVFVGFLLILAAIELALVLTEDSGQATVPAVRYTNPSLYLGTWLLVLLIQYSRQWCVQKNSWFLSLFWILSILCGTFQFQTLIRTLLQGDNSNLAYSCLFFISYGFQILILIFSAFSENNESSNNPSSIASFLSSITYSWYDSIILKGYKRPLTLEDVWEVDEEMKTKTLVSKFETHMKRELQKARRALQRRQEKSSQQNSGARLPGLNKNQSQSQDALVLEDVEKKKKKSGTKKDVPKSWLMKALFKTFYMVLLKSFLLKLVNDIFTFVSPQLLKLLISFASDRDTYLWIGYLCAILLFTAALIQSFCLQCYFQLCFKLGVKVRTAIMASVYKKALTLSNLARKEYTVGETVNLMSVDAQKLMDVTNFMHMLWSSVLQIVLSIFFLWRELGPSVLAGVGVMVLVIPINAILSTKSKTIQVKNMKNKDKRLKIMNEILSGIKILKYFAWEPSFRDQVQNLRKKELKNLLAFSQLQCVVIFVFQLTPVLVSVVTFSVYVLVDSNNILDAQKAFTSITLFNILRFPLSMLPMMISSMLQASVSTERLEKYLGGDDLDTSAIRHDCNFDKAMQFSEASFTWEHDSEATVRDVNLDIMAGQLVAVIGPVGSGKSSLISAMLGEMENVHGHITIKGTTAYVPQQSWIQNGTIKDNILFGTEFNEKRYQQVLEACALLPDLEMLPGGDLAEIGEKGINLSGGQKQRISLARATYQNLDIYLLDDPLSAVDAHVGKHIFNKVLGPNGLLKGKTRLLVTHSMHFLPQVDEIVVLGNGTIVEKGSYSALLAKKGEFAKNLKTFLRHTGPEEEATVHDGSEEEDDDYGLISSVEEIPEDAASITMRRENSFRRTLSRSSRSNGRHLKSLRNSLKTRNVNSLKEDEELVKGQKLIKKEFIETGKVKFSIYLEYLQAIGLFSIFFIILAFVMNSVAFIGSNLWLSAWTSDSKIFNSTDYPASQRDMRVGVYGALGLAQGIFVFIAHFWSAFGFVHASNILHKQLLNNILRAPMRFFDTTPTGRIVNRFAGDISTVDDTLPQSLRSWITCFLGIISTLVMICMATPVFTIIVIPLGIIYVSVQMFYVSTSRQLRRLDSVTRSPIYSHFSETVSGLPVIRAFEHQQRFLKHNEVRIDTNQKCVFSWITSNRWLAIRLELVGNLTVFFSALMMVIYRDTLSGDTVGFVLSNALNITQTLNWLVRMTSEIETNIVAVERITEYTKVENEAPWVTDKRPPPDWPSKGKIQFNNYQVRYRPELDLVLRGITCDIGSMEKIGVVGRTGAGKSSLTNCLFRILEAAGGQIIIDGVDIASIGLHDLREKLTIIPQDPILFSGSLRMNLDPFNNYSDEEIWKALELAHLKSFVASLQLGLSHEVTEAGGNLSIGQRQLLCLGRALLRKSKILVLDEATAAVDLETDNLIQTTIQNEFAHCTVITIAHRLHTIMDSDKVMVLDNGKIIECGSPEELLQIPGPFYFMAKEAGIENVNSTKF

[2] = target: T1, ATP-binding cassette sub-family C member 4 (Homo sapiens, UniProt O15439); assay: Inhibition of human MRP4 overexpressed in Sf9 cell membrane vesicles assessed as uptake of [3H]-estradiol-17beta-D-glucuronide in presence of ATP and GSH measured after 20 mins by membrane vesicle transport assay; assay type: ADME, cell-based
T1 sequence (O15439 whole entry): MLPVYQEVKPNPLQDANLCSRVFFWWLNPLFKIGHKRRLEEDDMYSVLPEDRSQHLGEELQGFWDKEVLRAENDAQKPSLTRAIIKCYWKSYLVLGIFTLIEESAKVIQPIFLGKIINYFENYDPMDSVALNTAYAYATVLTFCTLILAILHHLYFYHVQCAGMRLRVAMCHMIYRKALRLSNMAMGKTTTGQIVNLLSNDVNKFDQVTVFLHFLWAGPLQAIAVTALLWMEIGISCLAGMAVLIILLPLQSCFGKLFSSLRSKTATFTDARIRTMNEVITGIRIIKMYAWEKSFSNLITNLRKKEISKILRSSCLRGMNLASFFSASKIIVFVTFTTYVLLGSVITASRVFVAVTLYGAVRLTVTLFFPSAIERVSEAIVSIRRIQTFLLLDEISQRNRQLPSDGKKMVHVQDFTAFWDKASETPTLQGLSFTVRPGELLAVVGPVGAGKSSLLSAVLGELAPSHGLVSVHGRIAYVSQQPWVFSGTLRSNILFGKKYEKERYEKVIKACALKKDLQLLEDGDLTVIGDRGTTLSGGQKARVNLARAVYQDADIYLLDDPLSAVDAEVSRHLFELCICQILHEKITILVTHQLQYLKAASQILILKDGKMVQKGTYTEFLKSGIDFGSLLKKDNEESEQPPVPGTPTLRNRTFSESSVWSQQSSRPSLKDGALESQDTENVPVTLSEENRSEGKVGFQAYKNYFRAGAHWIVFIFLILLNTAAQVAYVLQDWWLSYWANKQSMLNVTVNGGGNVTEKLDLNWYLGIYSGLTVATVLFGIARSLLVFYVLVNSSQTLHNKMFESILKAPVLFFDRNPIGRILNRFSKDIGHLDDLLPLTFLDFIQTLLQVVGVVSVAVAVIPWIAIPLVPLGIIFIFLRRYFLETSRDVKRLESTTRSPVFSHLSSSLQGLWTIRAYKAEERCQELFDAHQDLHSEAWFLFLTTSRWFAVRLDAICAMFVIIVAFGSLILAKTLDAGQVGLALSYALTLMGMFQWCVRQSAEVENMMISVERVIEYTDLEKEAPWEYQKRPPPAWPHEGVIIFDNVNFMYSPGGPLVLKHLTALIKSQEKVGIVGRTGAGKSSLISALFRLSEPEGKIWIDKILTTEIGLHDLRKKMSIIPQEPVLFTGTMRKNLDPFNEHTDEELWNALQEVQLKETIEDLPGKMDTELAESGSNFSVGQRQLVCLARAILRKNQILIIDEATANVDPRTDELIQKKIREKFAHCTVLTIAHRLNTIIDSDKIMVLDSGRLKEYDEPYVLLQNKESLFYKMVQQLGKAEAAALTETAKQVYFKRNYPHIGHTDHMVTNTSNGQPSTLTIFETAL

[3] = target: ATP-binding cassette sub-family C member 3 (Homo sapiens, UniProt O15438); assay: Inhibition of human MRP3 overexpressed in Sf9 insect cell membrane vesicles assessed as uptake of [3H]-estradiol-17beta-D-glucuronide in presence of ATP and GSH measured after 10 mins by membrane vesicle transport assay; assay type: ADME, cell-based
ATP-binding cassette sub-family C member 3, sequence (O15438 whole entry): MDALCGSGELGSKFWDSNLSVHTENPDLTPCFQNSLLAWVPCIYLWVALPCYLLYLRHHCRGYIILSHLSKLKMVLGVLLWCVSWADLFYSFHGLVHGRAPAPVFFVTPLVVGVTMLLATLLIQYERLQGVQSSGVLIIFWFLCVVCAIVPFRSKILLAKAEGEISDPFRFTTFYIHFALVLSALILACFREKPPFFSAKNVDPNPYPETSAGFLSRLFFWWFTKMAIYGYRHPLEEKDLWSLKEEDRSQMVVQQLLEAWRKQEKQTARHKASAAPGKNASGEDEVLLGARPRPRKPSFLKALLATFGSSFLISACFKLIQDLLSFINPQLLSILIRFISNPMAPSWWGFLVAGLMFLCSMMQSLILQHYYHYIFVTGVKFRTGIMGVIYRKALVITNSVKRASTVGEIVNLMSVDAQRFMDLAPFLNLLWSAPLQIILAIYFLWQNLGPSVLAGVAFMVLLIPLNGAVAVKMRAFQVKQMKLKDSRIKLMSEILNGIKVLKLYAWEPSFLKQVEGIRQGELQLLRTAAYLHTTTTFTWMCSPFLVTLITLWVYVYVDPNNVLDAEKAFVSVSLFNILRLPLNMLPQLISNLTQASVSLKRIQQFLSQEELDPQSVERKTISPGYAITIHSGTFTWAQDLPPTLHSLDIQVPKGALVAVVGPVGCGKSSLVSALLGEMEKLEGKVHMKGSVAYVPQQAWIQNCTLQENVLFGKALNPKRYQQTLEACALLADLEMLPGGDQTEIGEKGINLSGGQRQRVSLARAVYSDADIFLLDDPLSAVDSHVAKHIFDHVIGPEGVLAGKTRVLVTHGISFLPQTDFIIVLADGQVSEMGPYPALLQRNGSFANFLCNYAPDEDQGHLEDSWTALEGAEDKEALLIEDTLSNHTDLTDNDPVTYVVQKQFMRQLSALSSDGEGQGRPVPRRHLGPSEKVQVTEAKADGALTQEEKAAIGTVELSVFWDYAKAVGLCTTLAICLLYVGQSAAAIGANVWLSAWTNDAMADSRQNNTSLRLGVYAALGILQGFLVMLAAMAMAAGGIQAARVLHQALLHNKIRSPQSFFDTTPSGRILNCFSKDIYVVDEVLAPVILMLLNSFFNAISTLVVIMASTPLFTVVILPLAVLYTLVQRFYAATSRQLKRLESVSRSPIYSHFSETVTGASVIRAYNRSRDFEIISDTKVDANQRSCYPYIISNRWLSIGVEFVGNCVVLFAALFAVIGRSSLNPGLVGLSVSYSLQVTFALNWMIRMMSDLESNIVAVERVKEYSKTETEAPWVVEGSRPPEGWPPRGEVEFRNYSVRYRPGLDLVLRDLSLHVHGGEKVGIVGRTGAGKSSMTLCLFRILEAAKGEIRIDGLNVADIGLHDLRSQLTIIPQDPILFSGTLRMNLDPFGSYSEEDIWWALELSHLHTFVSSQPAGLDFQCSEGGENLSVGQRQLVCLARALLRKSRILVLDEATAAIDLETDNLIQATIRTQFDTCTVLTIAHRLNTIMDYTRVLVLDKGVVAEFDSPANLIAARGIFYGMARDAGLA

Bile salt export pump, sequence (O95342 whole entry): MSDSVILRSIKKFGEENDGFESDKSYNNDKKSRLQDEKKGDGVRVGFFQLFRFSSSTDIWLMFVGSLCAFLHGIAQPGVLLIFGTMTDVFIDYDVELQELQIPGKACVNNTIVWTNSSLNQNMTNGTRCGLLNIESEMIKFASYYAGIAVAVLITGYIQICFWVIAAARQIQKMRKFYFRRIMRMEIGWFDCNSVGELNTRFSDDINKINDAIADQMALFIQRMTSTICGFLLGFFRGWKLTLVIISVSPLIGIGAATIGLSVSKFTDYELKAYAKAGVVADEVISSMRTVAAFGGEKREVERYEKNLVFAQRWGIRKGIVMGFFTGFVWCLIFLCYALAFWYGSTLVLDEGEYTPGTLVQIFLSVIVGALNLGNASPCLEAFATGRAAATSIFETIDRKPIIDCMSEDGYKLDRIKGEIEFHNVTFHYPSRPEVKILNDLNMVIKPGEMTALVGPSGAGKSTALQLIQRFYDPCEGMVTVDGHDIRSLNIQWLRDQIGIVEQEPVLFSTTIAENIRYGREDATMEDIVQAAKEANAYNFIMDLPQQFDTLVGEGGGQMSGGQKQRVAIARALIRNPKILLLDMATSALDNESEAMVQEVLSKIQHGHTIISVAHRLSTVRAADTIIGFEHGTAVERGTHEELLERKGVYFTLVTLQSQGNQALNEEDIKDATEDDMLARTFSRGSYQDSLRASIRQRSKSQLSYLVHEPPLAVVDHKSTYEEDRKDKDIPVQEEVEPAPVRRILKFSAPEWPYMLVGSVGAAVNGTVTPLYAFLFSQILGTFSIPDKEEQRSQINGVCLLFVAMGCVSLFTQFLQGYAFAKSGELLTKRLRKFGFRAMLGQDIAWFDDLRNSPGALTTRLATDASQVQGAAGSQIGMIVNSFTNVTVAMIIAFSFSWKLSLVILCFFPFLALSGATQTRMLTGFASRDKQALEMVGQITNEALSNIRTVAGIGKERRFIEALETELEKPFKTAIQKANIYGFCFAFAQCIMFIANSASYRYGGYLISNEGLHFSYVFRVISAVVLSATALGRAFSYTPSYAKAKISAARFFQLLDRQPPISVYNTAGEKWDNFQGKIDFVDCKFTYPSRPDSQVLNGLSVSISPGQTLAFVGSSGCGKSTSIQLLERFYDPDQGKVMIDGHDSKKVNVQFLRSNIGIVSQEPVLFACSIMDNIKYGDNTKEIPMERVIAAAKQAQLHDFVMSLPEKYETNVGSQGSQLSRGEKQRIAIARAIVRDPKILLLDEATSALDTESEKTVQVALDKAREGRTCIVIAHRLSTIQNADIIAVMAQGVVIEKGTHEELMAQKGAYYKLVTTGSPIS

## Cc1ncc([N+](=O)[O-])n1CC(O)CCl (configuration not stated) [ORNIDAZOLE]
Bile salt export pump
  IC50: > 133 µM
[1]
  IC50: > 133 µM
[2]
  IC50: > 133 µM
[3]
  IC50: > 133 µM

## CCC(=O)NCC[C@@H]1CCc2ccc3c(c21)CCO3 [RAMELTEON]
Bile salt export pump
  IC50: > 133 µM
[1]
  IC50: > 133 µM
[2]
  IC50: > 133 µM
[3]
  IC50: > 133 µM

## NC(=O)CC[C@@H]1NC(=O)[C@H](Cc2ccccc2)NC(=O)[C@H](Cc2ccc(O)cc2)NC(=O)CCSSC[C@@H](C(=O)N2CCC[C@H]2C(=O)N[C@H](CCCN=C(N)N)C(=O)NCC(N)=O)NC(=O)[C@H](CC(N)=O)NC1=O [DESMOPRESSIN ACETATE]
Bile salt export pump
  IC50: > 133 µM
[1]
  IC50: > 133 µM
[2]
  IC50: > 133 µM
[3]
  IC50: > 133 µM

## S=P(N1CC1)(N1CC1)N1CC1 [THIOTEPA]
Bile salt export pump
  IC50: > 133 µM
[1]
  IC50: > 133 µM
[2]
  IC50: > 133 µM
[3]
  IC50: > 133 µM

## O=C(O)CCC/C=C\CC1C(O)CC(O)C1/C=C/C(O)COc1cccc(Cl)c1 (configuration not stated) [CLOPROSTENOL SODIUM]
Bile salt export pump
  IC50: > 133 µM
[1]
  IC50: > 133 µM
[2]
  IC50: 1.9 µM
[3]
  IC50: > 133 µM

## C[C@]12CC[C@H](O)CC1=CC[C@@H]1[C@@H]2CC[C@]2(C)C(c3cccnc3)=CC[C@@H]12 [ABIRATERONE]
Bile salt export pump
  IC50: > 133 µM
[1]
  IC50: > 133 µM
[2]
  IC50: > 133 µM
[3]
  IC50: > 133 µM

## OCc1cc(C(O)CNCCCCCCOCCCCc2ccccc2)ccc1O (configuration not stated) [SALMETEROL XINAFOATE]
Bile salt export pump
  IC50: > 133 µM
[1]
  IC50: > 133 µM
[2]
  IC50: > 133 µM
[3]
  IC50: > 133 µM

## CC(C)C[C@H](NC(=O)[C@@H](COC(C)(C)C)NC(=O)[C@H](Cc1ccc(O)cc1)NC(=O)[C@H](CO)NC(=O)[C@H](Cc1c[nH]c2ccccc12)NC(=O)[C@H](Cc1cnc[nH]1)NC(=O)[C@@H]1CCC(=O)N1)C(=O)N[C@@H](CCCNC(=N)N)C(=O)N1CCC[C@H]1C(=O)NNC(N)=O [GOSERELIN ACETATE]
Bile salt export pump
  IC50: > 133 µM
[1]
  IC50: > 133 µM
[2]
  IC50: > 133 µM
[3]
  IC50: > 133 µM

## CC[C@]1(O)C[C@@H]2CN(CCc3c([nH]c4ccccc34)[C@@](C(=O)OC)(c3cc4c(cc3OC)N(C)[C@H]3[C@@](O)(C(=O)OC)[C@H](OC(C)=O)[C@]5(CC)C=CCN6CC[C@]43[C@@H]65)C2)C1 [VINBLASTINE]
Bile salt export pump
  IC50: > 133 µM
[1]
  IC50: > 133 µM
[2]
  IC50: 35.1 µM
[3]
  IC50: > 133 µM

## NC(N)=Nc1nc(CSCCC(N)=NS(N)(=O)=O)cs1 [FAMOTIDINE]
Bile salt export pump
  IC50: > 133 µM
[1]
  IC50: > 133 µM
[2]
  IC50: > 133 µM
[3]
  IC50: > 133 µM

## CN(C)CCc1c[nH]c2ccc(Cn3cncn3)cc12 [RIZATRIPTAN BENZOATE]
Bile salt export pump
  IC50: > 133 µM
[1]
  IC50: > 133 µM
[2]
  IC50: > 133 µM
[3]
  IC50: > 133 µM

## CN(C)/N=N/c1[nH]cnc1C(N)=O [DACARBAZINE]
Bile salt export pump
  IC50: > 133 µM
[1]
  IC50: > 133 µM
[2]
  IC50: > 133 µM
[3]
  IC50: > 133 µM

## C=CC(N)CCC(=O)O (configuration not stated) [VIGABATRIN]
Bile salt export pump
  IC50: > 133 µM
[1]
  IC50: > 133 µM
[2]
  IC50: > 133 µM
[3]
  IC50: > 133 µM

## CO[C@H]1O[C@@H]2O[C@@]3(C)CC[C@H]4[C@H](C)CC[C@@H]([C@H]1C)[C@@]24OO3
Bile salt export pump
  IC50: > 133 µM
[1]
  IC50: > 133 µM
[2]
  IC50: > 133 µM
[3]
  IC50: > 133 µM

## NC(=O)CN1CCCC1=O
Bile salt export pump
  IC50: > 133 µM
[1]
  IC50: > 133 µM
[2]
  IC50: > 133 µM
[3]
  IC50: > 133 µM

## C=C(C)[C@H]1Cc2c(ccc3c2O[C@@H]2COc4cc(OC)c(OC)cc4[C@@H]2C3=O)O1 [ROTENONE]
Bile salt export pump
  IC50: 8 µM
[1]
  IC50: > 133 µM
[2]
  IC50: > 133 µM
[3]
  IC50: > 133 µM

## CC(=O)O[C@H]1C[C@@H]2CC[C@@H]3[C@H](CC[C@@]4(C)[C@H]3C[C@H]([N+]3(C)CCCCC3)[C@@H]4OC(C)=O)[C@@]2(C)C[C@@H]1N1CCCCC1 [VECURONIUM BROMIDE]
Bile salt export pump
  IC50: > 133 µM
[1]
  IC50: > 133 µM
[2]
  IC50: > 133 µM
[3]
  IC50: > 133 µM

## CC(C)Cn1cnc2c(N)nc3ccccc3c21 [IMIQUIMOD]
Bile salt export pump
  IC50: > 133 µM
[1]
  IC50: > 133 µM
[2]
  IC50: > 133 µM
[3]
  IC50: > 133 µM
